Tests used:
H358 lung cells = assay: long-term proliferation assay, H358; type: cell-based; conditions: MEK inhibitor selumetinib (FIG. 2)
Protocol: FIG. 1 Suppression of ERBB3 by shRNA enhances response to MEK inhibitor. H358 KRAS mutant (Non-Small Cell Lung Cancer (NSCLC) cells were infected with two independent shRNAs targeting ERBB3 as indicated. pLKO vector serves as a control vector. After puromycin selection, cells were cultured in the absence or presence of 1 μM selumetinib for 20 days.
FIG. 2 […] lung cancer cells were cultured in increasing concentration of MEK inhibitor selumetinib alone, EGFR inhibitor gefitinib alone, ERBB2 inhibitor CP724714 alone, EGFR/ERBB2 dual inhibitor afatinib, EGFR/ERBB2 dual inhibitor dacomitinib alone or their combinations as indicated. Cells were harvested, fixed and stained after 21 days.
Recently the use of a kinome-centered synthetic lethal screening approach, which enables the identification of kinases whose inhibition is strongly synergistic with a cancer drug of interest has been described (Prahallad et al., 2012). […] Each of these knockdown vectors has a unique DNA-based molecular bar code identifier, which allows quantification of the relative abundance of each of the shRNA vectors in the presence and absence of drug (Prahallad et al., 2012). […] After 21 days, genomic DNA was isolated from both cells of the treated and untreated populations and the bar codes contained in the shRNA cassettes were recovered by PCR and their abundance determined by deep sequencing. […]

SW837 colon cells = assay: long-term proliferation assay, SW837; type: cell-based; conditions: MEK inhibitor selumetinib (FIG. 3)

Compound: COc1cc2ncnc(Nc3ccc(F)c(Cl)c3)c2cc1NC(=O)/C=C/CN1CCCCC1 [dacometinib]
- synergy with MEK inhibition in long-term proliferation assays (H358 lung cells): strong synergy
- synergy with MEK inhibition in long-term proliferation assays (SW837 colon cells): strong synergy

Source: patent US10398696B2, “Combinations for treatment of cancer” (Stichting Het Nederlands Kanker Instituut-Antoni van …, priority 2013, dated 2019)
